Reference: PMC11802822, “Comprehensive safety and toxicity analysis of 2,2’-Bipyridine derivatives in combating MRSA biofilm formation and persistence” (Frontiers in Cellular and Infection Microbiology, 2025)
Values after ≈ are worked out from the molar mass of the structure shown. Values joined by “and” are separate entries in the source; they are usually repeats but may differ in a detail not shown here. Equal entries are not always repeated. Where two headings read alike, the source gives them in different places.

Experiments:
[1] = system: V. cholerae (MTCC 3906); assay: Broth microdilution MIC; type: cell-based, Vibrio cholerae; settings: for MIC: Vibrio cholerae, MTCC3906, 18 h, read-out: Minimum inhibitory concentration; for Minimum inhibitory concentration: V. cholerae (MTCC 3906), 18 h
[2] = system: M. luteus (MTCC 106); assay: Agar well diffusion; settings: for zone of inhibition at 50 µg/mL: Micrococcus luteus, MTCC106
[3] = system: B. subtilis (MTCC 441); assay: Agar well diffusion; settings: for zone of inhibition at 50 µg/mL: Bacillus subtilis, MTCC441; for Zone of inhibition: B. subtilis (MTCC 441), 50 µg/ml, ND = Not detected
[4] = system: E. coli (MTCC739); assay: Agar well diffusion; settings: for zone of inhibition at 50 µg/mL: Escherichia coli, MTCC739; for Zone of inhibition: E. coli (MTCC739), 50 µg/ml, ND = Not detected
[5] = system: E. coli (MTCC739); assay: Broth microdilution MIC; settings: for MIC: Escherichia coli, MTCC739, 18 h, read-out: Minimum inhibitory concentration; for Minimum inhibitory concentration: E. coli (MTCC739), 18 h
[6] = system: P. aeruginosa (MTCC1934); assay: Broth microdilution MIC; settings: for MIC: Pseudomonas aeruginosa, MTCC1934, 18 h, read-out: Minimum inhibitory concentration; for Minimum inhibitory concentration: P. aeruginosa (MTCC1934), 18 h
[7] = system: K. pneumoniae (MTCC 618); assay: Broth microdilution MIC; settings: for MIC: Klebsiella pneumoniae, MTCC618, 18 h, read-out: Minimum inhibitory concentration; for Minimum inhibitory concentration: K. pneumoniae (MTCC 618), 18 h
[8] = system: V. cholerae (MTCC 3906); assay: Agar well diffusion; type: cell-based, Vibrio cholerae; settings: for Zone of inhibition: V. cholerae (MTCC 3906), 50 µg/ml, ND = Not detected; for zone of inhibition at 50 µg/mL: Vibrio cholerae, MTCC3906
[9] = system: MTCC 737; assay: PI uptake assay; type: cell-based, Staphylococcus aureus; settings: derivatives 100 µg/ml, Polymyxin B 10 μM, 1 h
Description: (§1) MTCC 737 and MRSA 831 were grown, washed, and resuspended in 5 mM HEPES (pH 7.2), with the OD600 normalized to 0.5. […] Polymyxin B (10 μM), a membrane destabilizer, was used as a reference control. Drug-free and vehicle controls (cells treated with 0.5% DMSO) were included to analyze changes in fluorescence. After 1 h of treatment, cultures were centrifuged and stained with 5 µM PI dye for 15 min. Following staining, the cultures were washed twice to remove the extra dye, and fluorescence was recorded at 485 nm excitation and 525 nm emission wavelengths ([Zhou et al., 2020]).

[10] = system: MRSA 831; assay: PI uptake assay; type: cell-based, methicillin-resistant S. aureus; settings: derivatives 100 µg/ml, Polymyxin B 10 μM, 1 h
Description: as §1

[11] = system: K. pneumoniae (MTCC 618); assay: Agar well diffusion; settings: 50 µg/ml, ND = Not detected
[12] = system: S. aureus (MTCC737); assay: Agar well diffusion; settings: for Zone of inhibition: S. aureus (MTCC737), 50 µg/ml, ND = Not detected; for zone of inhibition at 50 µg/mL: Staphylococcus aureus, MTCC737
[13] = system: MRSA 831 (MRSA); assay: Agar well diffusion; settings: MRSA 831, 50 µg/ml, ND = Not detected; for zone of inhibition at 50 µg/mL: Staphylococcus aureus, MRSA
[14] = system: P. aeruginosa (MTCC1934); assay: Agar well diffusion; settings: for Zone of inhibition: P. aeruginosa (MTCC1934), 50 µg/ml, ND = Not detected; for zone of inhibition at 50 µg/mL: Pseudomonas aeruginosa, MTCC1934
[15] = system: S. aureus (MTCC737); assay: Broth microdilution MIC; settings: for Minimum inhibitory concentration: S. aureus (MTCC737), 18 h; for MIC: Staphylococcus aureus, MTCC737, 18 h, read-out: Minimum inhibitory concentration
[16] = system: MRSA 831; assay: Broth microdilution MIC; settings: 18 h; for Minimum inhibitory concentration: MRSA 831; for MIC: Staphylococcus aureus, MRSA, read-out: Minimum inhibitory concentration
[17] = system: MTCC 737; assay: Biofilm inhibition assay (crystal violet); settings: S. aureus; at MIC or higher concentrations
Description: After incubation, cells were washed with 1X PBS, and stained with 100 µl of Crystal Violet dye for 15 min, and rinsed again with 1X PBS.

[18] = system: MRSA 831; assay: Neutropenic thigh infection model in mice; settings: neutropenic BALB/c mice, MRSA 831 10^8 CFU/ml, oral 30 mg/kg, after 2 h and 24 h, vs untreated control
[19] = Cytotoxicity (MTT assay); type: cell-based, murine; settings: mouse
Description: (§2) The murine fibroblast 3T3 L-1 cell line was procured from the National Centre for Cell Science (NCCS), Pune, India. The 3T3 L-1 cells were incubated at 37°C in an incubator maintained at 95% humidity and 5% CO2 in DMEM medium complemented with 10% fetal bovine serum (FBS) and 1% penicillin-streptomycin.
(§3) Synthesized derivatives were evaluated for cytotoxicity in a 3T3-L1 cell line using the MTT assay ([Ernawati et al., 2022]). 8000 cells/well were added in 96-well tissue culture flat-bottom microtiter plates for 24 h and then incubated with synthesized molecules (0-400 µg/ml) for 48 h at 37°C in a CO2 incubator. DMSO was used as solvent at a concentration of 0.1% to ensure that any observed effects were not attributable to the solvent itself, whereas 1 µg/ml doxorubicin was used in toxicity tests as a positive control. Subsequently, the media was replaced with MTT solution (100 µl) diluted in fresh media (0.5 mg/ml), and incubated for 4 h. After incubation, 100 µl of stop solution (50% DMF with 20% SDS) was added to dissolve the formazan crystals, and the plates were further incubated for 1 h. Absorbance was measured at 570 nm using BioTEK Synergy multi-plate reader ([Mosmann, 1983]; [Pratelli et al., 2023]). Percent cell viability was calculated using the following formula:
(§4) Cell viability (%)=Absorbance (Untreated - blank) - Absorbance (Test sample- blank)/Absorbance (Untreated - blank)×100

[20] = system: MRSA 831 persister cells; assay: Persister killing assay; type: cell-based, methicillin-resistant S. aureus; settings: MRSA persisters; 4-fold MIC
Description: To evaluate the persister-killing activity of 2,2’-Bipy derivatives, MTCC 737 and MRSA 831 cells were grown overnight to the stationary phase at 37°C ([Kim et al., 2018b]). […]. The bacterial densities of persisters were recorded at OD600 at hourly intervals from 0 to 6 h.

[21] = system: MTCC 737; assay: Transmission electron microscopy; settings: S. aureus MTCC 737; 100 µg/ml, 12 h
[22] = system: MRSA 831; assay: Transmission electron microscopy; settings: 100 µg/ml, 12 h
[23] = system: MTCC 737; assay: Biofilm imaging by confocal laser scanning microscopy (SYTO 9/PI); settings: derivatives 100 µg/ml, 24 h
Description: Using SYTO 9 and PI dyes. […] Two independent experiments were done in triplicate.

[24] = system: 3T3-L1 cell line; assay: Cytotoxicity (MTT assay); type: cell-based, murine
Description: as §2, §3, §4

[25] = system: MRSA; set-up: method as in Lee et al., 2017; settings: ref Lee et al., 2017; cited from earlier work

| Compound | MIC [1] [µg/mL] | zone of inhibition at 50 µg/mL [2] [mm] | zone of inhibition at 50 µg/mL [3] [mm] | zone of inhibition at 50 µg/mL [4] [mm] | MIC [5] [µg/mL] | MIC [6] [µg/mL] | MIC [7] [µg/mL] | Zone of inhibition [13] | zone of inhibition at 50 µg/mL [8] [mm] | zone of inhibition at 50 µg/mL [12] [mm] | zone of inhibition at 50 µg/mL [13] [mm] | zone of inhibition at 50 µg/mL [14] [mm] | MIC [15] [µg/mL] | MIC [16] [µg/mL] | other results |
| --- | --- | --- | --- | --- | --- | --- | --- | --- | --- | --- | --- | --- | --- | --- | --- |
| CC1(C)S[C@@H]2[C@H](NC(=O)[C@H](N)c3ccccc3)C(=O)N2[C@H]1C(=O)O [Ampicillin, reference compound] | 25 (≈ 71.5 µM) | 21 | 19.3 ± 0.58 | 4 | 6.25 (≈ 17.9 µM) | 25 (≈ 71.5 µM) | > 100 | – | – | – | – | – | – | – | – |
| C=CCOc1cc(C(C)=NO)nc(-c2ccccn2)c1 [NPS1, N-[1-(4-allyloxy[2,2’-bipyridin]-6-yl)ethyldiene]hydroxylamine] | – | – | – | – | – | – | – | 8.67 ± 0.58 mm | – | – | – | – | – | – | Zone of inhibition [8]: 15.33 ± 1.53 mm; Minimum inhibitory concentration [1]: 12.5 µg/mL (≈ 46.4 µM); PI fluorescence (membrane integrity) [9]: exhibited fluorescence indicating membrane instability; PI fluorescence (membrane integrity) [10]: exhibited fluorescence indicating membrane instability; Zone of inhibition [3]: 5.33 ± 2.31 mm; Zone of inhibition [11]: 6.00 ± 3.46 mm; Zone of inhibition [12]: 17.00 ± 2.65 mm; Zone of inhibition [4]: 9.33 ± 0.58 mm; Zone of inhibition [14]: 7.67 ± 1.53 mm; Minimum inhibitory concentration [5]: >100 µg/mL; Minimum inhibitory concentration [6]: >100 µg/mL; Minimum inhibitory concentration [15]: 50 µg/mL (≈ 186 µM); Minimum inhibitory concentration [7]: >100 µg/mL; Minimum inhibitory concentration [16]: 50 µg/mL (≈ 186 µM); Biofilm formation inhibition (in words) [17]: highly effective; Reduction in the bacterial load in thigh tissue [18]: ~ 1.8 log10 |
| C#CCOc1cc(C(=NO)c2ccccc2OC)nc(-c2ccccn2)c1 [NPS2, N-[(4-propargyloxy-[2,2’-bipyridin]-6-yl)(2-methoxyphenyl)methylidene] hydroxylamine] | 25 (≈ 69.6 µM) | 17 | 8.33 ± 1.15 | 9 | > 100 | > 100 | > 100 | – | 13 ± 1.73 | 14 | 9.67 ± 0.58 | 8.33 ± 1.53 | 50 (≈ 139 µM) | 50 (≈ 139 µM) | – |
| COc1ccnc(-c2cc(OC)cc(C(=NO)c3ccccc3OC)n2)c1 [NPS3, N-[(4,4’-dimethoxyl[2,2’-bipyridin]-6-yl)(2-methoxyphenyl)methylidene] hydroxylamine] | 25 (≈ 68.4 µM) | 14.7 ± 1.15 | 4.67 ± 1.15 | – | > 100 | > 100 | > 100 | – | 12.3 ± 2.52 | 13.7 ± 1.15 | 9.67 ± 0.58 | 11.3 ± 1.15 | 50 (≈ 137 µM) | 50 (≈ 137 µM) | IC50 at 24 h ([19]; 3T3-L1 fibroblast cells, 3T3L-1 cells, 24 h, read-out: IC50 (cytotoxicity, MTT)): 253 µg/mL; IC50 at 48 h ([19]; 3T3-L1 fibroblast cells, 3T3L-1 cells, 48 h, read-out: IC50 (cytotoxicity, MTT)): 274 µg/mL; Effect on persister cell counts [20]: significantly reduced |
| COc1ccccc1C(=NO)c1cc(C)cc(-c2cc(C)ccn2)n1 [NPS4, N-[(4,4’-dimethyl[2,2’-bipyridin]-6-yl)(2-methoxyphenyl)methylidene] hydroxylamine] | 12.5 (≈ 37.5 µM) | 19.3 ± 0.58 | 10 ± 1 | 9 ± 1 | > 100 | > 100 | > 100 | 14.33 ± 0.58 mm | 17.7 ± 3.21 | 19 | 14 | 18 ± 1 | 50 (≈ 150 µM) | 50 (≈ 150 µM) | IC50 at 24 h [19]: 279 µg/mL; IC50 at 48 h [19]: 240 µg/mL; Effect on persister cell counts [20]: significantly reduced; Cell morphology (TEM) [21]: Significant morphological alterations; Cell morphology (TEM) [22]: Significant morphological alterations; Biofilm formation inhibition (in words) [17]: highly effective; Biofilm disruption (CLSM) [23]: significant disruption and damage |
| CCC(=NO)c1cc(OC)cc(-c2cc(OC)ccn2)n1 [NPS5, N-[1-(4,4’-dimethoxy[2,2’-bipyridin]-6-yl)propyldiene]hydroxylamine] | – | – | – | – | – | – | – | 14 mm and 14.33 ± 0.58 mm | – | – | – | – | – | – | Zone of inhibition [8]: 17.67 ± 3.21 mm; Minimum inhibitory concentration [1]: 50 µg/mL (≈ 174 µM); Zone of inhibition ([2]; M. luteus (MTCC 106), 50 µg/ml, ND = Not detected): 7.33 ± 2.89 mm; Zone of inhibition [3]: 4.00 ± 0.00 mm; Zone of inhibition [11]: 13.00 ± 1.00 mm; Zone of inhibition [12]: 10.00 ± 1.73 mm; Zone of inhibition [4]: 9.00 ± 1.00 mm; Zone of inhibition [14]: 18.00 ± 1.00 mm; Minimum inhibitory concentration [5]: > 100 µg/mL; Minimum inhibitory concentration [6]: > 100 µg/mL; Minimum inhibitory concentration [15]: 50 µg/mL (≈ 174 µM); Minimum inhibitory concentration [7]: > 100 µg/mL; Minimum inhibitory concentration [16]: 50 µg/mL (≈ 174 µM) |
| CCC(=NO)c1cc(OC)cc(-c2cc(OC)ccn2)n1 [NPS6, N-[1-(4,4’-dimethoxy[2,2’-bipyridin]-6-yl)propyldiene]hydroxylamine] | – | – | – | – | – | – | – | – | – | – | – | – | – | – | IC50 (cytotoxicity, MTT) [24]: 168.1 µg/mL |
| COc1cc(-c2ccccn2)nc(CO)c1SC [collismycin C] | – | – | – | – | – | – | – | – | – | – | – | – | – | – | MRSA biofilm formation [25]: inhibited MRSA biofilm formation |
| Polymyxin B [reference compound] | – | – | – | – | – | – | – | – | – | – | – | – | – | – | PI fluorescence (membrane integrity) [9]: higher fluorescence; PI fluorescence (membrane integrity) [10]: higher fluorescence |
